Results on one compound are retold here after article PMC10301333, “The C-Terminus of Panusin, a Lobster β-Defensin, Is Crucial for Optimal Antimicrobial Activity and Serum Stability” (Pharmaceutics, 2023).

One series in a line: MTT cytotoxicity assay. The format is cell-based. Particulars: human. On the procedure: MRC-5 cells were cultured in Eagle’s minimum essential medium (MEMα), supplemented with 10% (v/v) fetal bovine serum (FBS) and a 1% penicillin (100 IU/mL)/streptomycin (100 μg/mL) solution, and maintained at 37 °C in a humidified atmosphere with 5% CO2. After cells were grown, they were seeded into 96-well plates at 3 × 10^4 cells/well and cultured overnight to adhere to the plate. Subsequently, adherent cells were incubated for 4 h under standard conditions (5% CO2, 37 °C) with 2-fold serial dilutions of each peptide in a 1.56–200 μM concentration range. Following incubation, the peptide-containing medium was replaced with MEM supplemented with FBS and 3-(4,5-dimethylthiazol-2-yl)-2,5 diphenyltetrazolium bromide (MTT) at 0.4 mg/mL, and the cells were further incubated for 120 min. Formazan crystals in live cells were detected after disruption with 200 μL of DMSO by OD measurement at 570 nm in a Tecan microplate reader. […] Data are the average of three independent replicates.
In general terms: Formazan colour is commonly taken as a measure of viable cells.

The next series relates to horse red blood cells. In words: Hemolytic activity (hemoglobin release). Particulars: pH 7.4. On the procedure:
Both peptides were tested for hemolytic activity on horse red blood cells (RBCs), as described earlier. Briefly, fresh RBCs in PBS (pH 7.4) were first centrifuged 3 × 1500× g for 5 min, then diluted 1:10 with PBS to yield an RBC concentration of ~5 × 10^8 cells/mL. RBCs were then incubated for 1 h at 37 °C with 2-fold serial dilutions of PaD or Ct_PaD covering a 0.24–250 μM concentration range. Next, 0.1% TritonX100 and PBS were used as positive and negative controls, respectively. After incubation, samples were centrifuged at 1500× g for 10 min at room temperature and the supernatant (60 μL) was transferred to a flat-bottomed 96-well polypropylene microplate (Greiner, Frickenhausen, Germany). Hemoglobin release was then measured as OD at 540 nm in a VICTOR3 microplate reader (Perkin Elmer, Waltham, MA, USA). Percent hemolysis was calculated as indicated below (Equation (1)).

In another series the test system is human erythrocytes. The conditions noted are these: natural panusin; cited from earlier work. From the text: Panusin, isolated from hemocytes of the spiny lobster Panulirus argus (PaD), is representative of those invertebrate peptides, which are related to mammalian β-defensins. PaD is comprised of 39 amino acid residues that fold into a well-described cysteine-stabilized αβ (CSαβ) motif, consisting of an α-helix and three antiparallel […]. These […] are strongly stabilized by three disulfide bonds. […] These properties mark it a ...

Another series is described as follows: in vitro. The conditions noted are these: human, human serum (50% v/v in water), t1/2 values, proteolysis in human serum, 37 °C, 24 h incubation.
A further series has as its system Acinetobacter baumannii. On the procedure:
(§1) Antimicrobial activities of both PaD and Ct_PaD were determined in a modified microdilution assay as described previously for other β-defensins such as peptides. The assay was performed in sterile polypropylene 96-well plates that prevent peptide binding (Greiner, Frickenhausen, Germany). From a bacterial isolate, a single colony was seeded in Mueller Hinton Broth (MHB, Condalab, Torrejón de Ardoz, Spain) and allowed to grow at 37 °C in an incubator with orbital shaking at 250 rpm overnight. Subsequently, a new bacterial culture was seeded from the overnight culture and allowed to grow to an OD of 0.5 at 600 nm. The bacterial suspension was diluted to a final concentration of 5 × 10^5 CFU (colony formation unit)/mL in sterile 10 mM phosphate buffer (PB: 2.46 mM NaH2PO4, 7.5 mM Na2HPO4, pH 7.4), used as the working culture. Next, 50 μL of 2-fold serial dilutions of each peptide in PB were placed on the plates to provide a final 0.097–100 µM concentration range after which 50 μL of working culture was applied to each well. The plate was first incubated for 2 h at 37 °C, then 100 μL of MHB 2× was added to each well and was incubated at 37 °C overnight with shaking. The growth of bacteria was measured by the optical density at 600 nm in a microplate reader (Tecan, Männedorf, Switzerland). The minimum inhibitory concentration (MIC) was defined as the minimum peptide concentration in which the microorganism is unable to grow. The results are the average of three independent studies. […] MBC was defined for each peptide as the lowest concentration with no bacterial growth detected.

In a further series the test system is Escherichia coli. On the procedure:
as §1

The test system of another series is Enterococcus faecium. The procedure: as §1
The subject of another series is Staphylococcus aureus. The procedure: as §1
The test system of a further series is Pseudomonas aeruginosa. The procedure:
as §1

The next series has as its system Micrococcus luteus. On the procedure:
as §1

A word on the IC50: it is the concentration that gives 50% inhibition. A low value points to higher potency. As a reminder, the half-life is how long it takes for the measured level to halve. Usually MIC stands for the lowest concentration found to suppress growth. Read a high MIC as weaker potency. The term MBC denotes the smallest concentration meeting the test's criterion for killing.

The structures appear in SMILES notation. Values after ≈ are worked out from the molar mass of the structure shown. Bridge positions count the residues as written; N and C are the ends. Peptide text beside a SMILES is read from it.

Method for in vitro: Peptide samples (500 μL, 500 μM in H2O) were mixed and incubated with 500 μL of human serum (Sigma-Aldrich, St. Louis, MO, USA) for 24 h at 37 °C. Aliquots (120 μL) were taken at 0, 30, 120, 360, 720, and 1440 min and treated with 20 μL of trichloroacetic acid (15% (v/v) in H2O). The suspension was centrifuged for 30 min at 13,000 rpm, 4 °C, and the supernatant was analyzed by RP-HPLC as described above. The unaltered peptide was determined by RP-HPLC peak integration, expressed as the percent of the amount at t0, and data were fitted to a one-phase exponential decay model using GraphPad Prism 8.01 to estimate half-life time (t1/2). Results are the average of three independent runs.

As to `CC(C)C[C@@H]1NC(=O)[C@H](CCCNC(=N)N)NC(=O)[C@H](CC(N)=O)NC(=O)CNC(=O)[C@H](Cc2ccc(O)cc2)NC(=O)[C@@H]2CCCN2C(=O)[C@@H]2CSSC[C@@H](C(=O)N[C@@H](CCCNC(=N)N)C(=O)N[C@@H](CCCNC(=N)N)C(=O)N[C@@H](CO)C(=O)N[C@@H](Cc3ccc(O)cc3)C(N)=O)NC(=O)[C@@H]3CSSC[C@H](NC(=O)[C@H](CC(=O)O)NC(=O)CNC(=O)[C@@H](NC(=O)[C@H](Cc4ccc(O)cc4)NC(=O)[C@@H](N)CO)C(C)C)C(=O)NCC(=O)N[C@@H](CO)C(=O)N[C@@H](CC(N)=O)C(=O)NCC(=O)NCC(=O)N[C@@H](CO)C(=O)N[C@@H](CSSC[C@H](NC(=O)[C@H](Cc4ccccc4)NC(=O)[C@H](Cc4ccc(O)cc4)NC(=O)[C@H](CC(N)=O)NC1=O)C(=O)N1CCC[C@H]1C(=O)N[C@@H](CC(C)C)C(=O)NCC(=O)N[C@@H](CCCNC(=N)N)C(=O)N[C@@H]([C@@H](C)O)C(=O)N3)C(=O)N[C@@H](C(C)C)C(=O)N[C@@H](CO)C(=O)N[C@@H](CO)C(=O)N[C@@H](Cc1ccc(O)cc1)C(=O)N2` [PaD] (H-SYVGDCGSNGGSCVSSYCPYGNRLNYFCPLGRTCCRRSY-NH2; disulfide 6-34, 13-28, 18-35), in “MTT cytotoxicity assay”, the half-inhibitory concentration (IC50) at 4 h stood at 145 ± 1.7 µM. Moreover, the “Hemolysis % (250 µM peptide)” value with horse red blood cells came out at 0.6 ± 0.02%. Also, the “Hemolytic effect on human erythrocytes” value in the series with human erythrocytes is recorded as “no hemolytic effect”. The half-life at 250 µM in the series “in vitro” was above 24 h. The minimum inhibitory concentration (MIC) with Acinetobacter baumannii (2 h, pH 7.4) stood at 25 µM (≈ 106 µg/mL); in the series on Escherichia coli (2 h, pH 7.4), 12.5 µM (≈ 53.2 µg/mL); in the series on Enterococcus faecium (2 h, pH 7.4), 25 µM (≈ 106 µg/mL); in the series on Staphylococcus aureus (2 h, pH 7.4) it was 25 µM (≈ 106 µg/mL); against Pseudomonas aeruginosa (2 h, pH 7.4), 25 µM (≈ 106 µg/mL); against Micrococcus luteus (2 h, pH 7.4), 12.5 µM (≈ 53.2 µg/mL). For the same compound, the MBC in the series on Acinetobacter baumannii (24 h) was 25 µM (≈ 106 µg/mL); against Escherichia coli (24 h), 12.5 µM (≈ 53.2 µg/mL); in the series with Enterococcus faecium (24 h), 25 µM (≈ 106 µg/mL); in the series with Staphylococcus aureus (24 h), 25 µM (≈ 106 µg/mL); against Pseudomonas aeruginosa (24 h), 25 µM (≈ 106 µg/mL); against Micrococcus luteus (24 h) it was 12.5 µM (≈ 53.2 µg/mL).
